Key:
[1] = Compatibility Test B: mixtures of single borate esters with Fungicide I; type: physicochemical; conditions: for appearance during mixing / separation or precipitation after mixing: borate ester mixed with Fungicide I (TBGB, HGB 10%); for overall stability of mixture with Fungicide I: conclusion from the observations; for collapse of closed container (moisture drawn from air): mixture with Fungicide I in closed container, TBGB a week, THGB 18 days
Source text: A mixture of Fungicide I and a 10% tributylene glycol biborate (TBGB) was made by pouring the TBGB into the Fungicide I. The following observations were made while making and after making the mixture.
The TBGB reacted with moisture in the air while pouring and formed a thin white film over the pour stream. […] This behavior was duplicated by opening the container and allowing it to come back to its normal shape and closing the container again. It is noted that TBGB in a fungicide mixture when open to the air will draw moisture from the air and hydrolyze to a form insolubles and result in an increase in the separated phase. The hazing during mixing and phase separation seen during the first test was identical to that observed during this mixing.
The TBGB test was repeated using a mixture of 10% hexylene glycol biborate (HGB). The mixture was made by pouring the HGB into the Fungicide I composition. The following observations were made while making and after making the mixture:
The container was closed. The crystalline material is soluble in water and isopropyl alcohol. A 10% HGB/mineral spirits solution was made to test for moisture adsorption from the air. […] The crystalline material is likely the hydroxy hexylene glycol borate compound formed by hydrolysis of the anhydride bond. The crystal formation in the HGB testing is similar to that observed in the first test in the test mixture storage drum.
The basic observations are that both the TBGB and HGB react with various components of the Fungicide I mixture and react with moisture in the air.
A mixture of tri hexylene glycol biborate (THGB) and Fungicide I was made. It was observed that the solution remains clear with no separation. Next, the mixture was left open to atmosphere for 90 days at 40% to 50% relative humidity conditions. […] A 10% evaporative loss of mineral spirits approximately every 14 days was replaced with new mineral spirits without any negative effects. […] The mixture was placed in a 0° F. freezer overnight. […] The mixture was placed in a 42° F. refrigerator for 63 hours.

[2] = cited from earlier work

Row | Compound | appearance of solution, container closed ([1]; 10% HGB/mineral spirits solution, container closed) | appearance of solution, container open to air ([1]; 10% HGB/mineral spirits solution, opened to air, over night) | appearance during mixing [1] | separation or precipitation after mixing [1] | overall stability of mixture with Fungicide I [1] | collapse of closed container (moisture drawn from air) [1] | redissolution on heating ([1]; after freezer, heated to approximately 20 F with stirring) | appearance after open storage ([1]; mixture with Fungicide I left open to atmosphere 90 days, 40% to 50% relative humidity) | appearance after freezer storage ([1]; mixture with Fungicide I, 0° F. freezer overnight) | appearance after refrigerator storage ([1]; mixture with Fungicide I, 42° F. refrigerator, 63 hours) | maximum boron concentration of saturated aqueous solution [2]
1 | CC1CC(C)(C)OB(OB2OC(C)CC(C)(C)O2)O1 (stereo not drawn) [HGB, hexylene glycol biborate] | remained clear without separation or solid precipitation | white crystal formation | remained clear during mixing | opaque white crystalline material immediately formed on the container surfaces | too reactive to form stable mixtures |  |  |  |  |  | 
2 | CC1CCOB(OCCC(C)OB2OCCC(C)O2)O1 (stereo not drawn) [TBGB, tributylene glycol biborate] |  |  | immediately became hazy | brownish/red colored layer immediately began to form at the bottom of the container | too reactive to form stable mixtures | collapse slightly after a week |  |  |  |  | 
3 | CC1CC(C)(C)OB(OC(C)CC(C)(C)OB2OC(C)CC(C)(C)O2)O1 (stereo not drawn) [THGB, tri hexylene glycol biborate] |  |  | remains clear | no separation | produces stable mixtures | without any collapse | dissolved all of the white solids | remained clear with no separation and no precipitation of solids | white solids were observed at the bottom of the container | remained clear without separation or precipitation | 
4 | OB(O)O [boric acid] |  |  |  |  |  |  |  |  |  |  | no more than one
